# According to patent US12037344B2, “NLRP3 modulators” (INNATE TUMOR IMMUNITY, INC., priority 2018, dated 2024):
# Like-named read-outs stand apart in the source and are kept apart here.
# How the values were obtained:
# [1] = molecular target: T1, TLR7 (Homo sapiens, UniProt Q9NYK1); test: In vitro human TLR7 binding reporter assay (HEK-Blue, NF-kB/AP1-inducible SEAP); format: cell-based; conditions: read-out: TLR7 Agonist EC50
# T1 construct: human HEK-Blue cells co-expressing a TLR7 or TLR8 gene
# T1 sequence (Q9NYK1 27-1049): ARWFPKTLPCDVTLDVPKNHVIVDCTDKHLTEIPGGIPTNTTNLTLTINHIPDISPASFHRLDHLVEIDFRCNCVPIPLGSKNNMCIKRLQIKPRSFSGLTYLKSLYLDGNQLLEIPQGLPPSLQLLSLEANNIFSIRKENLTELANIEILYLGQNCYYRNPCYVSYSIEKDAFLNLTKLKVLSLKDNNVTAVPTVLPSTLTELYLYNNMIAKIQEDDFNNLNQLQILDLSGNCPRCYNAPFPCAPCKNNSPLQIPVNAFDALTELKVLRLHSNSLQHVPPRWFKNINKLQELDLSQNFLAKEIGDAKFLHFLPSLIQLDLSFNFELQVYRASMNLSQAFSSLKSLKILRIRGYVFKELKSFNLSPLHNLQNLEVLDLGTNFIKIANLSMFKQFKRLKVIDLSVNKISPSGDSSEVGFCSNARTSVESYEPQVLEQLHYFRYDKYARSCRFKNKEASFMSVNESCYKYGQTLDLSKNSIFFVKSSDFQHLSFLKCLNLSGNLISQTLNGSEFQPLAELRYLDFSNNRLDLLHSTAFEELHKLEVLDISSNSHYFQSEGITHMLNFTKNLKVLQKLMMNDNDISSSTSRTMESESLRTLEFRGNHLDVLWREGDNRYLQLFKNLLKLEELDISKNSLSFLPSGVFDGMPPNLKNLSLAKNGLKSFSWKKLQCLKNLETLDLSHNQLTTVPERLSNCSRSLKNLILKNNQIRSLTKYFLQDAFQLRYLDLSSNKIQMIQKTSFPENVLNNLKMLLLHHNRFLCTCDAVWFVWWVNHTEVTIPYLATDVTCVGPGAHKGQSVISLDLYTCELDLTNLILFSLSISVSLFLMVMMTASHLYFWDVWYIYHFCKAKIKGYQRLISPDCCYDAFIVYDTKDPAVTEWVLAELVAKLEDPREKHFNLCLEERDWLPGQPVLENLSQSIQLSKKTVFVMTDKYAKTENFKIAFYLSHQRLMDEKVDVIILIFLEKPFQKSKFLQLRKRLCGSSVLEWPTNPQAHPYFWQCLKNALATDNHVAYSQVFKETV
# Outline: (§1)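 EC50s come from NF-kB/AP1-driven SEAP secretion in HEK-Blue cells expressing TLR7 or TLR8, measured with Quanti-Blue after an 18 h compound incubation. Maximal response is defined by a 50 μM reference standard.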
# [2] = molecular target: T2, TLR8 (Homo sapiens, UniProt Q9NR97); test: In vitro human TLR8 binding reporter assay (HEK-Blue, NF-kB/AP1-inducible SEAP); format: cell-based; conditions: read-out: TLR8 Agonist EC50
# T2 construct: human HEK-Blue cells co-expressing a TLR7 or TLR8 gene
# T2 sequence (Q9NR97 27-1041): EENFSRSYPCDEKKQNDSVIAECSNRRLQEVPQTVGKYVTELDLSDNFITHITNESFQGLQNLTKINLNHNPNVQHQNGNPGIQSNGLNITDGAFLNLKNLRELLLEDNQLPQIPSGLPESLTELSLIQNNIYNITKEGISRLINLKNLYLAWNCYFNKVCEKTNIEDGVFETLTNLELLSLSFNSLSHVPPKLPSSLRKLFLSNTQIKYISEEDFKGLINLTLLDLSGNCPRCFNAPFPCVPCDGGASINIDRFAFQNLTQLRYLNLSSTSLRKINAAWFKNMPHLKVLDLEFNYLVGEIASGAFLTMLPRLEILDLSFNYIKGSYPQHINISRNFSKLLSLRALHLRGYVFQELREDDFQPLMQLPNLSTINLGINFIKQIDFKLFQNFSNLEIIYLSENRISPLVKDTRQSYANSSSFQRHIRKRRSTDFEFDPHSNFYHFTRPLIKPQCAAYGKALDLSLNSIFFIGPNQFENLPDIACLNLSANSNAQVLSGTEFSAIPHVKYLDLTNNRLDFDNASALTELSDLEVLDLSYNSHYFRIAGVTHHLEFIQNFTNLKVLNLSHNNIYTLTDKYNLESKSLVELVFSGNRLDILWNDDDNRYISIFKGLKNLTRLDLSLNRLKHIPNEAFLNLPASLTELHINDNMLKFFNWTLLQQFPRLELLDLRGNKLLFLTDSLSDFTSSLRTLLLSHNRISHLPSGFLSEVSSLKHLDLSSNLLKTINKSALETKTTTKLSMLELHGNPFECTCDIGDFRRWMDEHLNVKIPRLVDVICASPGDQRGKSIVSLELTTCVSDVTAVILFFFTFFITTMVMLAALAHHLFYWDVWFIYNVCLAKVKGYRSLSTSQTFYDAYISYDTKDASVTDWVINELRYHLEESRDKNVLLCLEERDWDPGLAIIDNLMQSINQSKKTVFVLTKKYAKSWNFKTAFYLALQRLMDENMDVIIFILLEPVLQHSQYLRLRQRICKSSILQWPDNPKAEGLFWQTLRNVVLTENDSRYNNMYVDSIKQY
# Outline: as §1
# [3] = system: THP-1 cells; test: Measurement of IL-1β production, hTRF protocol (second alternative procedure), THP-1 cells; format: cell-based, human
# Outline: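 THP-1 cells differentiated overnight with 50 ng/ml PMA, then plated at 50,000 cells/well in RPMI with 2% FBS onto serial compound dilutions (top final concentration 10 μM) for 2 hours at 37° C. Supernatant IL-1β measured by hTRF (antibodies at 1:40, overnight at 4° C), read at 665/615 nm against a standard curve.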
# [4] = Homo sapiens, THP-1, IL-1β production, human, read-out: NLRP3 hILIB EC50
# [5] = Homo sapiens, THP-1, IL-1β production, human cells, read-out: NLRP3 hILIB EC50
SMILES,EC50 ([1]; activity range class),EC50 ([2]; activity range class),"EC50 [3, 4]","EC50 ([3]; IL-1β production, human, read-out: NLRP3 hILIB EC50)",EC50 ([1]; activity range),EC50 ([2]; activity range),"EC50 [3, 5]","EC50 ([3]; Homo sapiens, THP-1, read-out: NLRP3 hILIB EC50)"
"Nc1nc2cc(-c3cc[nH]n3)ccc2c2cn(CCNC(=O)Nc3ccccc3)nc12 [Example 115, 3-{2-[4-amino-7-(1H-pyrazol-3-yl)-2H-pyrazolo[3,4-c]quinolin-2-yl]ethyl}-1-phenylurea]",> 100 µM,> 100 µM,7.76 µM,,,,,
"Nc1nc2cc(-c3ccn[nH]3)ccc2c2oc(CCCO)nc12 [Example 147, 3-[4-amino-7-(1H-pyrazol-3-yl)-[1,3]oxazolo[4,5-c]quinolin-2-yl]propan-1-ol]",> 100 µM,> 100 µM,,,,,,6.09 µM
C[C@H](CO)Cn1ncc2c(N)nc3cc(-c4cc[nH]n4)ccc3c21 [Example 232],> 100 µM,> 100 µM,1.87 µM,,,,,
COc1ccc(C(=O)NCCn2cc3c(n2)c(N)nc2cc(-c4cc[nH]n4)ccc23)nc1 [Example 59],> 100 µM,> 100 µM,0.47 µM,,,,,
"Nc1nc2cc(-c3ccn[nH]3)ccc2c2sc(CCNC(=O)c3ccccc3)nc12 [Example 135, N-(2-(4-amino-7-(1H-pyrazol-5-yl)thiazolo[4,5-c]quinolin-2-yl)ethyl) benzamide]",> 100 µM,> 100 µM,0.98 µM,,,,,
"Nc1nc2cc(-c3cc[nH]n3)ccc2c2nn(C3CCOC3)cc12 (single isomer, unassigned) [Example 239]",> 100 µM,> 100 µM,,0.21 µM,,,,
Nc1nc2cc(-c3cc[nH]n3)ccc2c2cn(CCc3ccccn3)nc12 [Example 163],> 100 µM,> 100 µM,0.06 µM,,,,,
Nc1nc2cc(-c3cc[nH]n3)ccc2c2cn(CCC(=O)Nc3ccccc3)nc12 [Example 23],> 100 µM,> 100 µM,1.39 µM,,,,,
COC(=O)c1cccc(C(=O)NCCn2cc3c(n2)c(N)nc2cc(-c4cc[nH]n4)ccc23)n1 [Example 63],> 100 µM,> 100 µM,1.61 µM,,,,,
Nc1nc2cc(-c3cc[nH]n3)ccc2c2nn(CC(O)CO)cc12 (stereo not drawn) [Example 234],> 100 µM,> 100 µM,0.56 µM,,,,,
Cc1nc(C(=O)NCCn2cc3c(n2)c(N)nc2cc(-c4cc[nH]n4)ccc23)c(C)o1 [Example 68],> 100 µM,20 to 100 µM,0.37 µM,,,,,
Nc1nc2cc(-c3cc[nH]n3)ccc2c2nn(CCOCC(F)(F)F)cc12 [Example 333],> 100 µM,> 100 µM,0.24 µM,,,,,
Nc1nc2cc(-c3cc[nH]n3)ccc2c2cn(CCNC(=O)CO)nc12 [Example 35],20 to 100 µM,> 100 µM,20.7 µM,,,,,
Nc1nc2cc(-c3cc[nH]n3)ccc2c2cn(CCCc3cccnc3)nc12 [Example 26],> 100 µM,> 100 µM,0.98 µM,,,,,
CC[C@@H](O)Cn1cc2c(N)nc3cc(-c4cc[nH]n4)ccc3c2n1 [Example 368],> 100 µM,> 100 µM,0.52 µM,,,,,
CC(=O)NCCn1cc2c(n1)c(N)nc1cc(-c3cccs3)ccc12 [Example 130],> 100 µM,> 100 µM,0.64 µM,,,,,
Nc1nc2cc(-c3ccn[nH]3)ccc2c2nn(CCN3CCOCC3)cc12 [Example 260],> 100 µM,> 100 µM,5.76 µM,,,,,
"Nc1nc2cc(-c3ccn[nH]3)ccc2c2[nH]c(CC3CCCO3)cc12 (stereo not drawn) [Example 156, 2-[(oxolan-2-yl)methyl]-7-(1H-pyrazol-5-yl)-1H-pyrrolo[3,2-c]quinolin-4-amine]",> 100 µM,> 100 µM,0.31 µM,,,,,
COc1ccc(C(=O)NCCn2cc3c(n2)c(N)nc2cc(-c4cc[nH]n4)ccc23)cc1 [Example 40],> 100 µM,> 100 µM,0.78 µM,,,,,
Nc1nc2cc(-c3cc[nH]n3)ccc2c2cn(CCNC(=O)c3ncc(Cl)cc3F)nc12 [Example 85],20 to 100 µM,20 to 100 µM,0.4 µM,,,,,

# Second part, led by results:
EC50 ([1]; activity range class),EC50 ([2]; activity range class),"EC50 [3, 4]","EC50 ([3]; IL-1β production, human, read-out: NLRP3 hILIB EC50)",EC50 ([1]; activity range),EC50 ([2]; activity range),"EC50 [3, 5]",SMILES,"EC50 ([3]; Homo sapiens, THP-1, read-out: NLRP3 hILIB EC50)"
,,,,> 100 µM,> 100 µM,1.89 µM,Nc1nc2cc(-c3cc[nH]n3)ccc2c2[nH]c(CCNC(=O)C3CCCCO3)cc12 (stereo not drawn) [Example 415],
,,,,> 100 µM,> 100 µM,0.7 µM,CCn1c(CCCO)cc2c(N)nc3cc(-c4ccn[nH]4)ccc3c21 [Example 449],
,,,,> 100 µM,> 100 µM,1.17 µM,CN(Cc1cc2c(N)nc3cc(-c4cc[nH]n4)ccc3c2[nH]1)[C@H]1CCOC1 [Example 491],
,,,,> 100 µM,> 100 µM,0.09 µM,Nc1nc2cc(-c3cc[nH]n3)ccc2c2[nH]c(CNCC(F)F)cc12 [Example 520],
,,,,> 100 µM,> 100 µM,1.68 µM,C[C@@H](Cn1cc2c(n1)c(N)nc1cc(-c3cc[nH]n3)ccc12)NS(C)(=O)=O [Example 531],
,,,,> 100 µM,> 100 µM,4.41 µM,COC1CCN(C(=O)C(C)(C)Cn2cc3c(N)nc4cc(-c5ccn[nH]5)ccc4c3n2)CC1 [Example 610],
,,,,> 100 µM,> 100 µM,0.6 µM,N#CCCCCn1cc2c(N)nc3cc(-n4cccn4)ccc3c2n1 [Example 559],
,,,,> 100 µM,> 100 µM,1.41 µM,Nc1nc2cc(-c3cc[nH]n3)ccc2c2[nH]c(CCNS(=O)(=O)c3ccccc3)cc12 [Example 484],
,,,,> 100 µM,> 100 µM,22.4 µM,Nc1nc2cc(-c3ccn[nH]3)ccc2c2nn(CC3(C(=O)NCc4ccccn4)CC3)cc12 [Example 605],
,,,,> 100 µM,> 100 µM,2.39 µM,COCCS(=O)(=O)NCCc1cc2c(N)nc3cc(-c4cc[nH]n4)ccc3c2[nH]1 [Example 498],
,,,,> 100 µM,> 100 µM,1.81 µM,CC(C)(C(=O)NCC(F)F)n1cc2c(N)nc3cc(-c4cc[nH]n4)ccc3c2n1 [Example 514],
,,,,> 100 µM,> 100 µM,28.1 µM,Nc1nc2cc(-c3ccn[nH]3)ccc2c2nn(CCNS(=O)(=O)N3CCOCC3)cc12 [Example 593],
,,,,> 100 µM,> 100 µM,1.21 µM,CC(=O)N[C@H]1CCN(Cc2cc3c(N)nc4cc(-c5cc[nH]n5)ccc4c3[nH]2)C1 [Example 475],
